What was measured:
[1] = molecular target: T1, Cytoplasmic tyrosine-protein kinase BMX (Homo sapiens) (UniProt P51813); details: Compound concentration 1000.0 nM
T1 sequence (whole entry): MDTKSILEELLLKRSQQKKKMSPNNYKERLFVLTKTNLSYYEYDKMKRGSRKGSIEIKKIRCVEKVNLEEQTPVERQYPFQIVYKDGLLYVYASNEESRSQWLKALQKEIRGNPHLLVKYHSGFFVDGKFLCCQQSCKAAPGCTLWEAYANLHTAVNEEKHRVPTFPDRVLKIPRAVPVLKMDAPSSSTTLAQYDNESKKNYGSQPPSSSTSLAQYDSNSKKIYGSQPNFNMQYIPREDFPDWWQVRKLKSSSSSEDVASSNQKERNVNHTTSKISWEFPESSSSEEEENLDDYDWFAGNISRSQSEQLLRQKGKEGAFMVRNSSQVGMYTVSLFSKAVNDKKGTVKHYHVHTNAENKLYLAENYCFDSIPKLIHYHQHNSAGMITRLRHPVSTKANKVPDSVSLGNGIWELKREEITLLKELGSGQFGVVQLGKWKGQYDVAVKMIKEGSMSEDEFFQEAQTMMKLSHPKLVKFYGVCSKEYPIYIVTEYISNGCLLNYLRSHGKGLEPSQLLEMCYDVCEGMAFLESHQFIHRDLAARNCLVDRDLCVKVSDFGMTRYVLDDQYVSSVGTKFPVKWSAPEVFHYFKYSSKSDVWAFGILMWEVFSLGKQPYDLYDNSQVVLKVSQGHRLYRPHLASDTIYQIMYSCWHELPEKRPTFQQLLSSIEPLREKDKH

[2] = molecular target: T2, Alpha-1B adrenergic receptor (Homo sapiens) (UniProt P35368); details: Compound concentration 10.0 uM
T2 sequence (whole entry): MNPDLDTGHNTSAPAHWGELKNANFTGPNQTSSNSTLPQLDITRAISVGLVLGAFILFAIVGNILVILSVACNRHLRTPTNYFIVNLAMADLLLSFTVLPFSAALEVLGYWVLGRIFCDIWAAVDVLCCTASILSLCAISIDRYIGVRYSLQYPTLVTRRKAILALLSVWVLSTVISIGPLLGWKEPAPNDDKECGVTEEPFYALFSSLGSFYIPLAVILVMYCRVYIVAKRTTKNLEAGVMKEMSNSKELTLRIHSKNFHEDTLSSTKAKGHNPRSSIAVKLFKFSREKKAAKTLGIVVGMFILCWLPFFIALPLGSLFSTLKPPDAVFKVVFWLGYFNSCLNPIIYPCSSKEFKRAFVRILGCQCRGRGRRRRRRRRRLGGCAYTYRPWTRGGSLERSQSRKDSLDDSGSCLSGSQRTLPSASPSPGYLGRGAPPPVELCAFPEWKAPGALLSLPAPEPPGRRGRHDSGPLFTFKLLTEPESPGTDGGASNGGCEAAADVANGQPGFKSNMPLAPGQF

[3] = molecular target: 3-phosphoinositide-dependent protein kinase 1 (Homo sapiens) (UniProt O15530); details: Compound concentration 1000.0 nM
[4] = molecular target: Dual specificity mitogen-activated protein kinase kinase 7 (Homo sapiens) (UniProt O14733); details: Compound concentration 1000.0 nM
[5] = molecular target: Phosphatidylinositol 4-phosphate 5-kinase type-1 gamma (Homo sapiens) (UniProt O60331); details: Compound concentration 1000.0 nM
[6] = molecular target: Phosphatidylinositol 3-kinase catalytic subunit type 3 (Homo sapiens) (UniProt Q8NEB9); details: Compound concentration 1000.0 nM
[7] = molecular target: Calcium-dependent protein kinase 1 (Plasmodium falciparum) (UniProt P62344); details: Compound concentration 1000.0 nM
[8] = molecular target: Cyclin-dependent kinase-like 3 (Homo sapiens) (UniProt Q8IVW4); details: Compound concentration 1000.0 nM
[9] = molecular target: Casein kinase I isoform delta (Homo sapiens) (UniProt P48730); details: Compound concentration 1000.0 nM
[10] = molecular target: Serine/threonine-protein kinase 26 (Homo sapiens) (UniProt Q9P289); details: Compound concentration 1000.0 nM
[11] = molecular target: T3, TGF-beta receptor type-1 (Homo sapiens) (UniProt P36897); details: Compound concentration 1000.0 nM
T3 sequence (whole entry): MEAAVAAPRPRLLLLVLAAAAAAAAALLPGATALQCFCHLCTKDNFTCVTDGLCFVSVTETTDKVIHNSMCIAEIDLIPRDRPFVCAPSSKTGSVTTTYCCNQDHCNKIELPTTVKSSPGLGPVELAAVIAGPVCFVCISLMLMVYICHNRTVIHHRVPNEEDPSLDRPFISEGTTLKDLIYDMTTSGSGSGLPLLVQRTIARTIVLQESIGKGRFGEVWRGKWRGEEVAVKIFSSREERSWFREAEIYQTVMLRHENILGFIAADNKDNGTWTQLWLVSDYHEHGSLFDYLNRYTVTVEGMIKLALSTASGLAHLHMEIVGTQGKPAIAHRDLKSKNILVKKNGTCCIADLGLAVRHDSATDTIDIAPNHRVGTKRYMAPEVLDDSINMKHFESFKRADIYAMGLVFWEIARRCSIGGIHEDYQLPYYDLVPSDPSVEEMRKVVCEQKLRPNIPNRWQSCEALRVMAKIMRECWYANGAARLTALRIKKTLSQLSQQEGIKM

[12] = molecular target: Ephrin type-A receptor 2 (Homo sapiens) (UniProt P29317); details: Compound concentration 1000.0 nM
[13] = molecular target: MAP/microtubule affinity-regulating kinase 3 (Homo sapiens) (UniProt P27448); details: Compound concentration 1000.0 nM
[14] = molecular target: T4, Serine/threonine-protein kinase Chk1 (Homo sapiens) (UniProt O14757); details: Compound concentration 1000.0 nM
T4 sequence (whole entry): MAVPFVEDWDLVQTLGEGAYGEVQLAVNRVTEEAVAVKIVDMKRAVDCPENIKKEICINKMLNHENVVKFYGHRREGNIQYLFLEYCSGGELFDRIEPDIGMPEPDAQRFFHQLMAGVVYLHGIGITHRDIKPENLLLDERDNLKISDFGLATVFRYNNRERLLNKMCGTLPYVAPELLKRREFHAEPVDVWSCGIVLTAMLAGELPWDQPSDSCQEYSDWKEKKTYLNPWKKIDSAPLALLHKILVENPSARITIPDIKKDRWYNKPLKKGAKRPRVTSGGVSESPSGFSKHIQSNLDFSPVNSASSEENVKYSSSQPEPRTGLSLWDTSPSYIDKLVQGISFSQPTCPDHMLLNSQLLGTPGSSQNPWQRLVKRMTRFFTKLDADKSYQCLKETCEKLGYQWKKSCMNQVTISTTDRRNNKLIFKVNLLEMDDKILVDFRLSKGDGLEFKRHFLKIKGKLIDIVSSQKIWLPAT

[15] = molecular target: Ribosomal protein S6 kinase beta-1 (Homo sapiens) (UniProt P23443); details: Compound concentration 1000.0 nM
[16] = molecular target: Cyclin-dependent kinase 4 (Homo sapiens) (UniProt P11802); details: Compound concentration 1000.0 nM
Chain of Cyclin-dependent kinase 4 (Homo sapiens) (P11802 whole entry): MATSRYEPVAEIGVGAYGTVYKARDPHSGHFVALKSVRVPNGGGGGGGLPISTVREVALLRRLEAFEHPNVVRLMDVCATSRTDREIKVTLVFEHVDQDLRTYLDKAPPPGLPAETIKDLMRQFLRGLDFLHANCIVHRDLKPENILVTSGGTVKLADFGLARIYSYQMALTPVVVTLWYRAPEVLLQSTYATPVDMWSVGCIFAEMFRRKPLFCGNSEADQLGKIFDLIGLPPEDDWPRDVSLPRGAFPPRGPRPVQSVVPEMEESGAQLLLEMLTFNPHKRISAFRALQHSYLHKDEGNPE

Chain of 3-phosphoinositide-dependent protein kinase 1 (Homo sapiens) (O15530 whole entry): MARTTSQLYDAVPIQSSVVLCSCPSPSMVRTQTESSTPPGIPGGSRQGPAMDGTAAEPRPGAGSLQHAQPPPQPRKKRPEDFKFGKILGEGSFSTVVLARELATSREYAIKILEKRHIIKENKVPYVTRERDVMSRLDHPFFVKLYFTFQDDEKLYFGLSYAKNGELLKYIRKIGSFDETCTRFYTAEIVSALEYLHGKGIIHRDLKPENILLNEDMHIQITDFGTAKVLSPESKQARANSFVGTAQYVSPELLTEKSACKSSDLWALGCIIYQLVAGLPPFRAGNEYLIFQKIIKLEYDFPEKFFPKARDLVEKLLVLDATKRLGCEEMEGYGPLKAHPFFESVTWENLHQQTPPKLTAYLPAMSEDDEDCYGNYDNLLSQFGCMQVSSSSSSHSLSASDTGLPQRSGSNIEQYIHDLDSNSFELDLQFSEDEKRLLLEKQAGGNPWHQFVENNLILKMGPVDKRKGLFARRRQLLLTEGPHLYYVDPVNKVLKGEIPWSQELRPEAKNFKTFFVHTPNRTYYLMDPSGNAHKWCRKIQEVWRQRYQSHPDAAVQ
Chain of Casein kinase I isoform delta (Homo sapiens) (P48730 whole entry, looked up, canonical isoform): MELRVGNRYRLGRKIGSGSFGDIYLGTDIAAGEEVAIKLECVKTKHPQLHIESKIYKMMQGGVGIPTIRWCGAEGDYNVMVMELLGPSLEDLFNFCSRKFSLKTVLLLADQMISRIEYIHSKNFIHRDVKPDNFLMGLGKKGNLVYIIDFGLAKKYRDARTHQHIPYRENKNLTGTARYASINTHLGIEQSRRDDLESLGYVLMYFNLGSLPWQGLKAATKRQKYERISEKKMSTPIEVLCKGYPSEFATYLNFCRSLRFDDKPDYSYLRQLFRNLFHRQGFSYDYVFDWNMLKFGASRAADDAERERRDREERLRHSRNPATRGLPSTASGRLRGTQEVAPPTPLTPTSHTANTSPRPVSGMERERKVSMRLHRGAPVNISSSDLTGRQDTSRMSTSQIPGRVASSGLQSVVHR
Chain of Ephrin type-A receptor 2 (Homo sapiens) (P29317 whole entry): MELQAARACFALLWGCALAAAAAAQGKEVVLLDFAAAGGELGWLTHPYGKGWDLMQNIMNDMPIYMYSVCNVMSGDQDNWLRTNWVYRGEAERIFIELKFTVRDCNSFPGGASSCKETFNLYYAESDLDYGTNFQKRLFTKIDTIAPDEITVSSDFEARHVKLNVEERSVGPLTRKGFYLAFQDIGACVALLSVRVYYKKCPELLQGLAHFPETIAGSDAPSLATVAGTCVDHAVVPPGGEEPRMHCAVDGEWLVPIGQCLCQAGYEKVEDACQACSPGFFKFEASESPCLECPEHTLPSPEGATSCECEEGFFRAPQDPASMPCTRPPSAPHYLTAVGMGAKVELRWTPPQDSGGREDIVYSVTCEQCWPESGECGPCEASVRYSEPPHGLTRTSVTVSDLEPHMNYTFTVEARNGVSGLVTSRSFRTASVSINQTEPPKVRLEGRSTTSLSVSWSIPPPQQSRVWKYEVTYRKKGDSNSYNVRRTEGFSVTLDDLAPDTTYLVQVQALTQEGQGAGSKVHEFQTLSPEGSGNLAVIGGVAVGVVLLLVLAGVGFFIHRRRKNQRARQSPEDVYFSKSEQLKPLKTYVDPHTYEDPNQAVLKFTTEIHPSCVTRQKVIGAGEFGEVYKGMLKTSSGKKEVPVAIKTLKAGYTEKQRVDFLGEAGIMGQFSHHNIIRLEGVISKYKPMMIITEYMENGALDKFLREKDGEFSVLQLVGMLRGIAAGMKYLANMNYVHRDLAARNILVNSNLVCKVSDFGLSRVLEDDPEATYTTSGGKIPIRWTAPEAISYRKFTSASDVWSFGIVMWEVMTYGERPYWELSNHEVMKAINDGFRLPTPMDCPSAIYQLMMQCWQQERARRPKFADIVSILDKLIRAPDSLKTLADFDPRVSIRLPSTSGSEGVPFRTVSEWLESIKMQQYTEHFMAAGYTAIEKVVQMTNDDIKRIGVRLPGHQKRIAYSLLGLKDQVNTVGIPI
Chain of Cyclin-dependent kinase-like 3 (Homo sapiens) (Q8IVW4 whole entry, looked up, canonical isoform): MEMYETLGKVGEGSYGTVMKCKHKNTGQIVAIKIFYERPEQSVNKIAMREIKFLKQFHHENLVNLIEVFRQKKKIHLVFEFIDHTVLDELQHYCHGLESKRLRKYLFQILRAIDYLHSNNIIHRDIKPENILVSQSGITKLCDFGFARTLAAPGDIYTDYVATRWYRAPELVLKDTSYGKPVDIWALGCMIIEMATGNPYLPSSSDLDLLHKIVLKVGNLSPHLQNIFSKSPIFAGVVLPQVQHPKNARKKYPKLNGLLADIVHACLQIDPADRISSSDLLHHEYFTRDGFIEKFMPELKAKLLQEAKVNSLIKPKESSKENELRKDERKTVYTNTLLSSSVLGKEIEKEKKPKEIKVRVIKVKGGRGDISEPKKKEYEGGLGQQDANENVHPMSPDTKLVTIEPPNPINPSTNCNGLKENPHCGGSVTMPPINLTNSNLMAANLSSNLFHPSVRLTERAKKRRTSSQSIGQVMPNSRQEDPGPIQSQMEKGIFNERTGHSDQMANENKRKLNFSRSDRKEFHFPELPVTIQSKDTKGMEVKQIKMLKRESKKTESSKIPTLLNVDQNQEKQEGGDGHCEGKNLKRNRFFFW
Chain of MAP/microtubule affinity-regulating kinase 3 (Homo sapiens) (P27448 whole entry, looked up): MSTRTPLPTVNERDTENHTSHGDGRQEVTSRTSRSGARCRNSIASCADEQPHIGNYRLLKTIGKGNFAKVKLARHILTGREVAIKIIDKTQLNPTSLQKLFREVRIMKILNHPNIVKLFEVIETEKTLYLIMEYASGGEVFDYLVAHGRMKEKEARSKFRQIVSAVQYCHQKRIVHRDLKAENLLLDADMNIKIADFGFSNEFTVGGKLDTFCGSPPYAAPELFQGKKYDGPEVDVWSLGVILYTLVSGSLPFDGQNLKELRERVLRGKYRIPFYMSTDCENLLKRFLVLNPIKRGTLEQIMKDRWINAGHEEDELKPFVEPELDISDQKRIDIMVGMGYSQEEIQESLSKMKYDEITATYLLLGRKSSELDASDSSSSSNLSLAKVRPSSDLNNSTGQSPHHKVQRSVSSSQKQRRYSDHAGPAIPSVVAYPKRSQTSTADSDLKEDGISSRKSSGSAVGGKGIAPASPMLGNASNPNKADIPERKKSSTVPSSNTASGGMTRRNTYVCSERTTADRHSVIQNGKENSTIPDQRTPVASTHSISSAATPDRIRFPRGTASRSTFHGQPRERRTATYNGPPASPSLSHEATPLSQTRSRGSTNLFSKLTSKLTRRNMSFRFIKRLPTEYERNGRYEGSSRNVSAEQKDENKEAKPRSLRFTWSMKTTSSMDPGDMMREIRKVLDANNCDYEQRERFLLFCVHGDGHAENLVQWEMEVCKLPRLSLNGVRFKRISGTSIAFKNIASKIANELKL
Chain of Ribosomal protein S6 kinase beta-1 (Homo sapiens) (P23443 whole entry, looked up): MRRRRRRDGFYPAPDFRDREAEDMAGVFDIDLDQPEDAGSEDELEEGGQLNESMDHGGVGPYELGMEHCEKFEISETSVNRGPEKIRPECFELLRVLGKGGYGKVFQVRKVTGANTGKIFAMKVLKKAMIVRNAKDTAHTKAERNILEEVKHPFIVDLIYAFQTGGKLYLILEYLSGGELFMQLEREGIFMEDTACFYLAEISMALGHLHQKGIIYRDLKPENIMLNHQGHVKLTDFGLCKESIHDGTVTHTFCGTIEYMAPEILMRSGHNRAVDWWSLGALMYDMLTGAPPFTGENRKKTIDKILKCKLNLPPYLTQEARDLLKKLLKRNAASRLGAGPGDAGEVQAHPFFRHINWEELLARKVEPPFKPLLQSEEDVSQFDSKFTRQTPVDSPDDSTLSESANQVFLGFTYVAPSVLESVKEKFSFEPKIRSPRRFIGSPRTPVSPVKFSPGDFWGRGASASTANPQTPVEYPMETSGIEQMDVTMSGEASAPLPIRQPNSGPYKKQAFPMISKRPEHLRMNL
Chain of Dual specificity mitogen-activated protein kinase kinase 7 (Homo sapiens) (O14733 whole entry): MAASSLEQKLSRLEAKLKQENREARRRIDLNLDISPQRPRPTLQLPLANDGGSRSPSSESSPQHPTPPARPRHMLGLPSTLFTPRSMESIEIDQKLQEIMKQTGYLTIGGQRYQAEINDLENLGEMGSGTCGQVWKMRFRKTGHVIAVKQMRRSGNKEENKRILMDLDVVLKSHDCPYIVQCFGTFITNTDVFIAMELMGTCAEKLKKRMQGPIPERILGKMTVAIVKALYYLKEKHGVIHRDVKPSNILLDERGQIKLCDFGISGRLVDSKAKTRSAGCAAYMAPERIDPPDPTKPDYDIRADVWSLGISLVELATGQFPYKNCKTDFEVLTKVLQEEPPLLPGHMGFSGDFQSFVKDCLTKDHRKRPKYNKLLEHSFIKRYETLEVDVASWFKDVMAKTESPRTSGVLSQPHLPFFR
Chain of Serine/threonine-protein kinase 26 (Homo sapiens) (Q9P289 2-416 limits assumed): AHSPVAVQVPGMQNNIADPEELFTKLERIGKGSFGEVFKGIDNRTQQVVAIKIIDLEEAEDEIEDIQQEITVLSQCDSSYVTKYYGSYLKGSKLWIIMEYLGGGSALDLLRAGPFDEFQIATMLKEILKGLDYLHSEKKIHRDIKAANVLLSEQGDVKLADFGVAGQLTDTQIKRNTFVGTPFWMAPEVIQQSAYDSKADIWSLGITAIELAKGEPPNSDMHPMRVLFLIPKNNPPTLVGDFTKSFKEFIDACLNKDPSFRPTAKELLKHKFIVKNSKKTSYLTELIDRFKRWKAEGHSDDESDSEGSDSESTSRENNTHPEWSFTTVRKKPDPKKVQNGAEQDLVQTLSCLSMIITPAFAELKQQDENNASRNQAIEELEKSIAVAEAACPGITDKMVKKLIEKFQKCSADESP

SMILES | residual activity [1] [%] | inhibition [2] [%] | residual activity [3] [%] | residual activity [4] [%] | residual activity [5] [%] | residual activity [6] [%] | residual activity [7] [%] | residual activity [8] [%] | residual activity [9] [%] | residual activity [10] [%] | residual activity [11] [%] | residual activity [12] [%] | residual activity [13] [%] | residual activity [14] [%] | residual activity [15] [%] | residual activity [16] [%]
CN(C)C(=O)Cn1cc(-c2nc(C3(c4ccc(-c5cnc(N)nc5)cc4)CC3)no2)cn1 [BI 0153] | 88 | 5.11 | 82 | 87 | 96 | 96 | 82 | 80 | 100 | 89 | 97 | 89 | 100 | 100 | 91 | 44
CN(C)C(=O)Cn1cc(-c2nc([C@@](C)(c3ccc(-c4cnc(N)nc4)cc3)C3CC3)no2)cn1 [BI 665915] | 93 | 2.84 | 99 | 94 | 100 | 89 | 58 | 94 | 96 | 97 | 100 | 100 | 99 | 85 | 83 | 94

Source: ChEMBL document CHEMBL4507276 (2021)
